Structures can show the parent of a compound that is named as a salt.
Tested on: behaviors of compound-treated mice
Assay: Neuropharmacological Assay (SmartCube)
Format: in vivo
Settings: for minimal effective dose: Mus musculus, ip, 0.25 h, dose having 50% or more total activity in SmartCube, i.p., read-out: MED (minimal effective dose); for AD: ADHD (probability that activity matches class) / AG: analgesic (probability that activity matches class) / AX: anxiolytic (probability that activity matches class) / CE: cognitive enhancer (probability that activity matches class) / DP: anti-depressant (probability that activity matches class) / MS: mood stabilizer (probability that activity matches class) / PS: anti-psychotic (probability that activity matches class) / SD: sedative hypnotic (probability that activity matches class) / UN: uncharacterized CNS activity (probability that activity matches class): i.p. 15 min before behavioral test, most efficacious dose(s) of 3 doses
Outline: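 Behavioral signatures were captured automatically by video, and each drug class received a probability for the best of three i.p. doses given 15 min pre-test (vehicle: Pharmasolve/PEG/propylene glycol). Potency is given as MED, the lowest mpk dose (typically 0.3–30) reaching 50% or more total activity.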

SMILES	minimal effective dose [mg/kg]	AD: ADHD (probability that activity matches class)	AG: analgesic (probability that activity matches class)	AX: anxiolytic (probability that activity matches class)	CE: cognitive enhancer (probability that activity matches class)	DP: anti-depressant (probability that activity matches class)	MS: mood stabilizer (probability that activity matches class)	PS: anti-psychotic (probability that activity matches class)	SD: sedative hypnotic (probability that activity matches class)	UN: uncharacterized CNS activity (probability that activity matches class)
NCC1OCCc2c(-c3ccncn3)cccc21 (stereo not shown) [Compound 60, (5-(Pyrimidin-4-yl)isochroman-1-yl)methanamine hydrochloride salt]	3 to 10	+ (LOQ ≤ + <5%)	++ (5% ≤ ++ <25%)	++ (5% ≤ ++ <25%)	+ (LOQ ≤ + <5%)	++++ (50% ≤ ++++)	+ (LOQ ≤ + <5%)	+ (LOQ ≤ + <5%)	+ (LOQ ≤ + <5%)	+ (LOQ ≤ + <5%)
NCC1OCCc2c(-c3ccnnc3)cccc21 (stereo not shown) [Compound 61, (5-(Pyridazin-4-yl)isochroman-1-yl)methanamine hydrochloride salt]	10 to 30	+ (LOQ ≤ + <5%)	+ (LOQ ≤ + <5%)	++ (5% ≤ ++ <25%)	+ (LOQ ≤ + <5%)	++ (5% ≤ ++ <25%)	+ (LOQ ≤ + <5%)	+ (LOQ ≤ + <5%)	+ (LOQ ≤ + <5%)	++++ (50% ≤ ++++)
NCC1OCCc2c(-c3cccnn3)cccc21 (stereo not shown) [Compound 62, (5-(Pyridazin-3-yl)isochroman-1-yl)methanaminehydrochloride salt]	> 30	+ (LOQ ≤ + <5%)	+ (LOQ ≤ + <5%)	++ (5% ≤ ++ <25%)	+ (LOQ ≤ + <5%)	++ (5% ≤ ++ <25%)	+ (LOQ ≤ + <5%)	+ (LOQ ≤ + <5%)	+ (LOQ ≤ + <5%)	+ (LOQ ≤ + <5%)
NCC1OCCc2c(-c3cnccn3)cccc21 (stereo not shown) [Compound 63, (5-(Pyrazin-2-yl)isochroman-1-yl)methanamine hydrochloride salt]	3 to 10	++ (5% ≤ ++ <25%)	+ (LOQ ≤ + <5%)	++ (5% ≤ ++ <25%)	+ (LOQ ≤ + <5%)	++++ (50% ≤ ++++)	+ (LOQ ≤ + <5%)	+ (LOQ ≤ + <5%)	+ (LOQ ≤ + <5%)	+ (LOQ ≤ + <5%)
NCC1OCCc2c(-c3cnoc3)cccc21 (stereo not shown) [Compound 64, (5-(Isoxazol-4-yl)isochroman-1-yl)methanamine hydrochloride salt]	3 to 10	+ (LOQ ≤ + <5%)	+ (LOQ ≤ + <5%)	+ (LOQ ≤ + <5%)	+ (LOQ ≤ + <5%)	++++ (50% ≤ ++++)	+ (LOQ ≤ + <5%)	+ (LOQ ≤ + <5%)	+ (LOQ ≤ + <5%)	++ (5% ≤ ++ <25%)
CNCC1OCCc2c(-c3cnoc3)cccc21 (stereo not shown) [Compound 65, 1-(5-(Isoxazol-4-yl)isochroman-1-yl)-N-methylmethanamine hydrochloride salt]	3 to 10	++ (5% ≤ ++ <25%)	+ (LOQ ≤ + <5%)	+ (LOQ ≤ + <5%)	++ (5% ≤ ++ <25%)	++++ (50% ≤ ++++)	+ (LOQ ≤ + <5%)	++ (5% ≤ ++ <25%)	++ (5% ≤ ++ <25%)	++ (5% ≤ ++ <25%)
CNC[C@@H]1OCCc2c(-c3ccno3)cccc21 [Compound 94, (R)-1-(5-(Isoxazol-5-yl)isochroman-1-yl)-N-methylmethanamine]	10 to 30	+ (LOQ ≤ + <5%)	+ (LOQ ≤ + <5%)	+ (LOQ ≤ + <5%)	+ (LOQ ≤ + <5%)	+ (LOQ ≤ + <5%)	+ (LOQ ≤ + <5%)	+ (LOQ ≤ + <5%)	+ (LOQ ≤ + <5%)	+ (LOQ ≤ + <5%)
CNC[C@H]1OCCc2c(-c3ccno3)cccc21 [Compound 95, (S)-1-(5-(Isoxazol-5-yl)isochroman-1-yl)-N-methylmethanamine]	≤ 3	++++ (50% ≤ ++++)	+ (LOQ ≤ + <5%)	++ (5% ≤ ++ <25%)	+ (LOQ ≤ + <5%)	++++ (50% ≤ ++++)	+ (LOQ ≤ + <5%)	+ (LOQ ≤ + <5%)	++ (5% ≤ ++ <25%)	++ (5% ≤ ++ <25%)
NC[C@@H]1OCCc2c(-c3cocn3)cccc21 [Compound 100, (R)-(5-(oxazol-4-yl)isochroman-1-yl)methanamine HCl salt]	3 to 10	+ (LOQ ≤ + <5%)	+ (LOQ ≤ + <5%)	++ (5% ≤ ++ <25%)	+ (LOQ ≤ + <5%)	+ (LOQ ≤ + <5%)	+ (LOQ ≤ + <5%)	+ (LOQ ≤ + <5%)	+ (LOQ ≤ + <5%)	++++ (50% ≤ ++++)
NC[C@H]1OCCc2c(-c3cocn3)cccc21 [Compound 101, (S)-(5-(oxazol-4-yl)isochroman-1-yl)methanamine HCl salt]	3 to 10	++ (5% ≤ ++ <25%)	+ (LOQ ≤ + <5%)	++ (5% ≤ ++ <25%)	+ (LOQ ≤ + <5%)	++ (5% ≤ ++ <25%)	+ (LOQ ≤ + <5%)	+ (LOQ ≤ + <5%)	+ (LOQ ≤ + <5%)	++ (5% ≤ ++ <25%)

From US10780074B2, “Compounds and uses thereof” (Sunovion Pharmaceuticals Inc., priority 2017, dated 2020)
